From patent publication US20230167118A1, “DEGRADATION OF BRUTON'S TYROSINE KINASE (BTK) BY CONJUGATION OF BTK INIDBITORS WITH E3 LIGASE LIGAND AND METHODS OF USE” (BEIGENE, LTD., priority 2020, published 2023)

What was measured:
HEK-293 cells = assay: HEK-293 Cytotoxicity Assay (CellTiter-Glo); type: cell-based; conditions: Homo sapiens, HEK293, 72 h incubation, CellTiter-Glo luminescence
In short: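 Four-parameter fit of % inhibition gives IC50, from CellTiter-Glo luminescent viability read-out. Cells exposed for 72 h to an 8-point, 4-fold series at 0.2% DMSO.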

BTK = biological target: T1, BTK (Homo sapiens, UniProt Q06187); assay: Cell Degradation: BTK degradation in TMD-8 cells, HTRF assay; type: cell-based; conditions: 6 h treatment, IC50 (DC50) of BTK degradation
T1 construct: High control=Cell group with added DMSO and without compound, indicating microplate readings without BTK degradation; endogenous in cells; host or cells: TMD-8 cells
T1 sequence (Q06187 whole entry): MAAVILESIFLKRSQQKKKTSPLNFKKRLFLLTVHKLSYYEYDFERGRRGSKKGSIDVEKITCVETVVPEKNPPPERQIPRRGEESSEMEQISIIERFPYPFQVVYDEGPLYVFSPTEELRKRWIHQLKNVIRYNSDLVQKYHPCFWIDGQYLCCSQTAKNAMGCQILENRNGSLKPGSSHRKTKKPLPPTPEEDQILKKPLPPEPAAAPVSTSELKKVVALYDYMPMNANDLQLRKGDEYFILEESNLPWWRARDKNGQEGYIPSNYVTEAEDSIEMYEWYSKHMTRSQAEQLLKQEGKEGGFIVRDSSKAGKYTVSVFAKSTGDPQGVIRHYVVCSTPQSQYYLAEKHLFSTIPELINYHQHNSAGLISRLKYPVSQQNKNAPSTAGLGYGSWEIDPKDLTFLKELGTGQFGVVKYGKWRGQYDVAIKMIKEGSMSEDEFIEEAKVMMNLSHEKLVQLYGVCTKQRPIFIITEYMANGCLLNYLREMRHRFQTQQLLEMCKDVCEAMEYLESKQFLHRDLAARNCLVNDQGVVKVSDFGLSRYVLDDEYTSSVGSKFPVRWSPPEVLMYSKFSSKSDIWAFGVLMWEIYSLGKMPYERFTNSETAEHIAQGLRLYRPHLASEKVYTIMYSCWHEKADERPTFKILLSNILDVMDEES
In short: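 BTK levels read by HTRF (665 vs 620 nm) in lysates of TMD-8 cells after 6 h compound exposure (eight doses, 6-fold steps, 0.2% DMSO). Percent degradation relative to controls; four-parameter curve fitting gave DC50, with Dmax the top degradation.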

DC50 (BTK)	SMILES	IC50 (HEK-293 cells)
1.08 nM	Cc1cc(-c2ncnc3[nH]c(-c4ccc(N5CCN(CC6CCN(c7ccc(N8CCC(=O)NC8=O)cc7)CC6)CC5)cc4)nc23)ccc1[C@@H](C)NC(=O)c1noc(C(C)(C)C)n1 [Example 68, (R)-5-(tert-butyl)-N-(1-(4-(8-(4-(4-((1-(4-(2,4-dioxotetrahydropyrimidin-1(2H)-yl)phenyl)piperidin-4-yl)methyl)piperazin-1-yl)phenyl)-9H-purin-6-yl)-2-methylphenyl)ethyl)-1,2,4-oxadiazole-3-carboxamide]	> 10000 nM
0.21 nM	Cc1cc(-c2ncnc3[nH]c(-c4ccc(N5CCN(CC6CCN(c7ccc(N8CCC(=O)NC8=O)c(C)c7)CC6)CC5)nc4)nc23)ccc1[C@@H](C)NC(=O)c1noc(C(C)(C)C)n1 [Example 71, (R)-5-(tert-butyl)-N-(1-(4-(8-(6-(4-((1-(4-(2,4-dioxotetrahydropyrimidin-1(2H)-yl)-3-methylphenyl)piperidin-4-yl)methyl)piperazin-1-yl)pyridin-3-yl)-9H-purin-6-yl)-2-methylphenyl)ethyl)-1,2,4-oxadiazole-3-carboxamide]	> 10000 nM
1.1 nM	Cc1cc(-c2ncnc3[nH]c(-c4ccc(N5CCN(CC6CCN(c7ccc(N8CCC(=O)NC8=O)c(C)c7)CC6)CC5)cc4)nc23)ccc1[C@@H](C)NC(=O)c1noc(C(C)(C)C)n1 [Example 73, (R)-5-(tert-butyl)-N-(1-(4-(8-(4-(4-((1-(4-(2,4-dioxotetrahydropyrimidin-1(2H)-yl)-3-methylphenyl)piperidin-4-yl)methyl)piperazin-1-yl)phenyl)-9H-purin-6-yl)-2-methylphenyl)ethyl)-1,2,4-oxadiazole-3-carboxamide]	> 10000 nM
0.4 nM	C[C@@H](NC(=O)c1nc(C(C)(C)C)no1)c1ccc(-c2ncnc3[nH]c(-c4ccc(N5CCN(CC6CCN(c7ccc(N8CCC(=O)NC8=O)cc7)CC6)CC5)cc4)cc23)cc1CO [Example 74]	> 10000 nM
0.88 nM	Cc1c([C@@H](C)NC(=O)c2nc(C(C)(C)C)no2)ccc(-c2ncnc3[nH]c(-c4ccc(N5CCN(CC6CCN(c7ccc(N8CCC(=O)NC8=O)cc7)CC6)CC5)cc4)cc23)c1F [Example 78, (R)-3-(tert-butyl)-N-(1-(4-(6-(4-(4-((1-(4-(2,4-dioxotetrahydropyrimidin-1(2H)-yl)phenyl)piperidin-4-yl)methyl)piperazin-1-yl)phenyl)-7H-pyrrolo[2,3-d]pyrimidin-4-yl)-3-fluoro-2-methylphenyl)ethyl)-1,2,4-oxadiazole-5-carboxamide]	> 10000 nM
1.5 nM	Cc1cc(-c2ncnc3[nH]c(-c4ccc(N5CCN(CC6CCN(c7ccc(N8CCC(=O)NC8=O)cc7)CC6)CC5)cc4)cc23)c(F)cc1[C@@H](C)NC(=O)c1nc(C(C)(C)C)no1 [Example 79, (R)-3-(tert-butyl)-N-(1-(4-(6-(4-(4-((1-(4-(2,4-dioxotetrahydropyrimidin-1(2H)-yl)phenyl)piperidin-4-yl)methyl)piperazin-1-yl)phenyl)-7H-pyrrolo[2,3-d]pyrimidin-4-yl)-5-fluoro-2-methylphenyl)ethyl)-1,2,4-oxadiazole-5-carboxamide]	> 10000 nM
4.3 nM	C[C@@H](NC(=O)c1nc(C(C)(C)C)no1)c1ccc(-c2ncnc3[nH]c(-c4ccc(N5CCN(CC6CCN(c7ccc(N8CCC(=O)NC8=O)cc7)CC6)C[C@@H]5C)nc4)cc23)cc1F [Example 80, 3-(tert-butyl)-N-((R)-1-(4-(6-(6-((S)-4-((1-(4-(2,4-dioxotetrahydropyrimidin-1(2H)-yl)phenyl)piperidin-4-yl)methyl)-2-methylpiperazin-1-yl)pyridin-3-yl)-7H-pyrrolo[2,3-d]pyrimidin-4-yl)-2-fluorophenyl)ethyl)-1,2,4-oxadiazole-5-carboxamide]	> 10000 nM
1.5 nM	Cc1cc(-c2ncnc3[nH]c(-c4ccc(N5CCN(CC6CCN(c7ccc(N8CCC(=O)NC8=O)cc7)CC6)CC5)cc4)cc23)ccc1[C@@H](C)NC(=O)c1noc(C2(C)CC2)n1 [Example 90, (R)-N-(1-(4-(6-(4-(4-((1-(4-(2,4-dioxotetrahydropyrimidin-1(2H)-yl)phenyl)piperidin-4-yl)methyl)piperazin-1-yl)phenyl)-7H-pyrrolo[2,3-d]pyrimidin-4-yl)-2-methylphenyl)ethyl)-5-(1-methylcyclopropyl)-1,2,4-oxadiazole-3-carboxamide]	> 10000 nM
0.6 nM	Cc1cc(-c2ncnc3[nH]c(-c4ccc(N5CCN(CC6CCN(c7ccc(N8CCC(=O)NC8=O)cc7)CC6)CC5)nc4)cc23)ccc1[C@@H](C)NC(=O)c1noc(C(C)(C)C)n1 [Example 104, (R)-5-(tert-butyl)-N-(1-(4-(6-(6-(4-((1-(4-(2,4-dioxotetrahydropyrimidin-1(2H)-yl)phenyl)piperidin-4-yl)methyl)piperazin-1-yl)pyridin-3-yl)-7H-pyrrolo[2,3-d]pyrimidin-4-yl)-2-methylphenyl)ethyl)-1,2,4-oxadiazole-3-carboxamide]	> 10000 nM
3 nM	Cc1cc(-c2ncnc3[nH]c(-c4ccc(N5CCN(CC6CCN(c7ccc(N8CCC(=O)NC8=O)cc7)CC6)C[C@H]5C)nc4)cc23)ccc1[C@@H](C)NC(=O)c1nc(C(C)(C)C)no1 [Example 105, 3-(tert-butyl)-N-((R)-1-(4-(6-(6-((R)-4-((1-(4-(2,4-dioxotetrahydropyrimidin-1(2H)-yl)phenyl)piperidin-4-yl)methyl)-2-methylpiperazin-1-yl)pyridin-3-yl)-7H-pyrrolo[2,3-d]pyrimidin-4-yl)-2-methylphenyl)ethyl)-1,2,4-oxadiazole-5-carboxamide]	> 10000 nM
4.6 nM	Cc1cc(-c2ncnc3[nH]c(-c4ccc(N5CCN(CC6CCN(c7ccc(N8CCC(=O)NC8=O)cc7)CC6)C[C@@H]5C)nc4)cc23)ccc1[C@@H](C)NC(=O)c1nc(C(C)(C)C)no1 [Example 106, 3-(tert-butyl)-N-((R)-1-(4-(6-(6-((S)-4-((1-(4-(2,4-dioxotetrahydropyrimidin-1(2H)-yl)phenyl)piperidin-4-yl)methyl)-2-methylpiperazin-1-yl)pyridin-3-yl)-7H-pyrrolo[2,3-d]pyrimidin-4-yl)-2-methylphenyl)ethyl)-1,2,4-oxadiazole-5-carboxamide]	> 10000 nM
1.7 nM	Cc1cc(-c2ncnc3[nH]c(-c4ccc(N5CCN(CC6CCN(c7ccc(N8CCC(=O)NC8=O)cc7)CC6)CC5)cc4)cc23)c(F)cc1[C@@H](C)NC(=O)c1noc(C(C)(C)C)n1 [Example 107, (R)-5-(tert-butyl)-N-(1-(4-(6-(4-(4-((1-(4-(2,4-dioxotetrahydropyrimidin-1(2H)-yl)phenyl)piperidin-4-yl)methyl)piperazin-1-yl)phenyl)-7H-pyrrolo[2,3-d]pyrimidin-4-yl)-5-fluoro-2-methylphenyl)ethyl)-1 2,4-oxadiazole-3-carboxamide]	> 10000 nM
0.35 nM	C[C@@H](NC(=O)c1noc(C(C)(C)C)n1)c1ccc(-c2ncnc3[nH]c(-c4ccc(N5CCN(CC6CCN(c7ccc(N8CCC(=O)NC8=O)cc7)CC6)CC5)cn4)cc23)cc1F [Example 108, (R)-5-(tert-butyl)-N-(1-(4-(6-(5-(4-((1-(4-(2,4-dioxotetrahydropyrimidin-1(2H)-yl)phenyl)piperidin-4-yl)methyl)piperazin-1-yl)pyridin-2-yl)-7H-pyrrolo[2,3-d]pyrimidin-4-yl)-2-fluorophenyl)ethyl)-1,2,4-oxadiazole-3-carboxamide]	> 10000 nM
0.72 nM	CC(C)(C)c1noc(C(=O)NCc2ccc(-c3ncnc4[nH]c(-c5ccc(N6CCN(CC7CCN(c8ccc(N9CCC(=O)NC9=O)cc8)CC7)CC6)cc5)cc34)cc2CO)n1 [Example 109, 3-(tert-butyl)-N-(4-(6-(4-(4-((1-(4-(2,4-dioxotetrahydropyrimidin-1(2H)-yl)phenyl)piperidin-4-yl)methyl)piperazin-1-yl)phenyl)-7H-pyrrolo[2,3-d]pyrimidin-4-yl)-2-(hydroxymethyl)benzyl)-1,2,4-oxadiazole-5-carboxamide]	> 10000 nM
> 2000 nM	Cc1cc(-c2ncnc3[nH]c(-c4ccc(N5CCN(CC6CCN(c7ccc(N8CCC(=O)N(C)C8=O)cc7)CC6)CC5)cn4)cc23)ccc1[C@@H](C)NC(=O)c1nc(C(C)(C)C)no1 [Example 110, (R)-3-(tert-butyl)-N-(1-(2-methyl-4-(6-(5-(4-((1-(4-(3-methyl-2,4-dioxotetrahydropyrimidin-1(2H)-yl)phenyl)piperidin-4-yl)methyl)piperazin-1-yl)pyridin-2-yl)-7H-pyrrolo[2,3-d]pyrimidin-4-yl)phenyl)ethyl)-1,2,4-oxadiazole-5-carboxamide]	> 10000 nM
2.3 nM	Cc1cc(-c2ncnc3[nH]c(-c4ccc(N5CCN(CC6CCN(c7ccc(N8CCC(=O)NC8=O)c(F)c7)CC6)CC5)cc4)cc23)ccc1[C@@H](C)NC(=O)c1nc(C(C)(C)C)no1 [Example 111, (R)-3-(tert-butyl)-N-(1-(4-(6-(4-(4-((1-(4-(2,4-dioxotetrahydropyrimidin-1(2H)-yl)-3-fluorophenyl)piperidin-4-yl)methyl)piperazin-1-yl)phenyl)-7H-pyrrolo[2,3-d]pyrimidin-4-yl)-2-methylpheyl)ethyl)-1,2,4-oxadiazole-5-carboxamide]	> 10000 nM
0.76 nM	Cc1cc(-c2ncnc3[nH]c(-c4ccc(N5CCN(CC6CCN(c7ccc(N8CCC(=O)NC8=O)c(C)c7)CC6)CC5)c(C)c4)nc23)ccc1[C@@H](C)NC(=O)c1nc(C(C)(C)C)no1 [Example 112, (R)-3-(tert-butyl)-N-(1-(4-(8-(4-(4-((1-(4-(2,4-dioxotetrahydropyrimidin-1(2H)-yl)-3-methylphenyl)piperidin-4-yl)methyl)piperazin-1-yl)-3-methylphenyl)-9H-purin-6-yl)-2-methylphenyl)ethyl)-1,2,4-oxadiazole-5-carboxamide]	> 10000 nM
